Data: US20130045952A1, “ABA Receptor Agonists for Increased Plant Stress Resistance” (Van Andel Research Institute, priority 2011, published 2013)

What was measured:
PYL2 A93F = molecular target: T1, PYL2 A93F (Arabidopsis thaliana, UniProt O80992, A93F); test: PP2C binding and phosphatase assays of mutant PYL2 A93F; type: biochemical
T1 construct: PYL2 (residues 14-188), and HAB1 (residues 172-511) were prepared as recombinant proteins in E. coli; made in house; host or cells: E. coli (stated for PYL2 in general)
Description: The closest distance between the pyridine ring of pyrabactin and the LPA gating residues is 4.8 Å-7.0 Å when the LPA loop assumes the ABA-bound closed conformation, but is 11-13 Å when the LPA gate is in open conformation. In contrast, the distance of the naphthalene double ring of pyrabactin or the cyclohexene ring of ABA to the three side chains of the LPA gate in the PYL1 structure is 3.4-4.6 Å, a range for strong Van der Waals interactions, thus helping to keep the LPA gate in the closed conformation. […] To validate this hypothesis, we changed the alanine in the LPA loop to a larger residue. […] As expected from structural modeling, replacement of the gate residue A93 with the bulky phenylalanine ring also abrogated ABA to promote PYL2 activation.
Mutant proteins were expressed as H6GST-fusion proteins and purified by glutathione sepharose chromatography. Protein-protein interactions were determined by luminescence proximity AlphaScreen assay. Biotinylated PP2C proteins for the luminescence proximity assay were generated by in vivo biotinylation of avitag-PP2C fusion proteins. PP2C phosphatase activity was measured by phosphate release from a SnRK2.6 phosphoprotein.
Site-directed mutagenesis was carried out using the QuickChange method (Stratagene). Mutations and all plasmid constructs were confirmed by sequencing.

PYR1 = molecular target: T2, PYR1 (Arabidopsis thaliana, UniProt O49686); conditions: in vivo; cited from earlier work
T2 sequence (O49686 1-191): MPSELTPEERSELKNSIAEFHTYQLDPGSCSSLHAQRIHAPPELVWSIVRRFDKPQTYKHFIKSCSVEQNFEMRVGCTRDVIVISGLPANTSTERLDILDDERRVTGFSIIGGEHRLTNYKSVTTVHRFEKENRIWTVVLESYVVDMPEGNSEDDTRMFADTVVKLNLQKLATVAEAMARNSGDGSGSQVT

T1 sequence (O80992 14-188 A93F): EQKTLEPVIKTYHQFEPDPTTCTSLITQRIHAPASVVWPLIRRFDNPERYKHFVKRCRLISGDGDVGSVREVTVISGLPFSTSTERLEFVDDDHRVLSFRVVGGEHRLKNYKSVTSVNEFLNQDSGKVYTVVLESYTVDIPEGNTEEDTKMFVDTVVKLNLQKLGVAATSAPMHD

Structure (SMILES): O=S(=O)(NCc1ccccn1)c1ccc(Br)c2ccccc12 [Pyrabactin, pyrabactin]
- Activation of mutant PYL2 A93F receptor (PYL2 A93F): pyrabactin-activated receptor
- Activity at PYR1 in a seed germination assay (PYR1): selective agonist
